Measured values taken from patent US20170231929A1, “METHOD FOR ENHANCING IMMUNE CELL FUNCTION AND METHOD FOR ASSESSING IMMUNE CELL MULTIFUNCTIONALITY” (NATIONAL UNIVERSITY CORPORATION OKAYAMA UNIVERSITY, priority 2014, published 2017).

Tested on: CD8^+T cells
Test: Multifunctionality of CD8^+T cells of metastatic lung cancer patients (stage IV) after metformin treatment of PBMC (flow cytometer)
Assay type: cell-based, human
Settings: for Decrease, IFNγ 1-cytokine-producing cell / Decrease, IFNγ/IL-2 2-cytokine-producing cell / Decrease, IFNγ/TNFα 2-cytokine-producing cell / Decrease, IFNγ/TNFα/IL2 3-cytokine-producing cell / Increase, IFNγ 1-cytokine-producing cell / Increase, IFNγ/IL-2 2-cytokine-producing cell / Increase, IFNγ/TNFα 2-cytokine-producing cell / Increase, IFNγ/TNFα/IL2 3-cytokine-producing cell / No Change, IFNγ 1-cytokine-producing cell / No Change, IFNγ/IL-2 2-cytokine-producing cell / No Change, IFNγ/TNFα 2-cytokine-producing cell / No Change, IFNγ/TNFα/IL2 3-cytokine-producing cell: Cancer Patients (stage IV)
Procedure: 1. Peripheral blood was obtained from a test subject, and PBMC was separated by a density-gradient centrifugation using a lymphocyte-separating reagent Ficoll-Paque® (GE Healthcare). 3 mL of Ficoll-Paque® was dispensed in a 15-mL tube. 8 mL of the peripheral blood was gently placed on the reagent. At this time, care should be taken not to mix Ficoll-Paque® with the peripheral blood. Centrifugation was performed at 400 g for 30 minutes, thereby separating PBMC. 2. The separated PBMC was preserved in a −150° C. freezer or liquid nitrogen using Bambang Car cell preservation liquid by adjusting the cell number to 2.0×10^6 cell/tube. 3. In the test, the thawed PBMC was cultured for 1 to 10 hours in the presence or absence of […]. The culture was performed using a 24-well plate, and the cell number was adjusted to about 5.0×10^5 cell/well. 4. The cells were collected after 1 to 10 hours, washed with medium, and cultured in the presence of a cell activation reagent (potent nanomolar activator of protein kinase C (PMA, 50 ng/mL), ionomycin (1 μM)) for 6 hours, thereby non-specifically stimulating T cells. At this time, BD Gorgi Stop™ was added to keep the produced cytokines inside the cells. 5. The cells were isolated and washed twice with a cell-staining buffer. First, staining of CD8, PD-1, Tim-3, which are molecules expressed on the T cell surface, was performed. In the staining, a staining buffer was added in an amount of 50 μL per sample. The culture was performed at 4° C. for 30 minutes. 6. The cells were collected and washed twice with a cell-staining buffer. 500 μL of BD Cytofix/Cytoperm was added and cultured at 4° C. for 30 minutes. 7. The cells were collected and washed twice with BD Perm/Wash™. Staining of cytokines IL-2, TNFα, and IFNγ was performed. In the staining, BD Perm/Wash™ was added in an amount of 50 μL per sample. The culture was performed at 4° C. for 30 minutes. 8. The cells were collected and washed twice with BD Perm/Wash™, and 200 μL of BD Perm/Wash™ was added. 9. Analysis was performed using a FACSCanto™ II flow cytometer (Becton, Dickinson and Company).
Among the PBMC treated with PMA/ionomycin in the method shown in (2) above, first, a gate was applied to CD8^+T cells using a FACSCanto™ II flow cytometer (Becton, Dickinson and Company), and then […] were removed by FSC-A and FSC-H. Using parameters FSC-A and SSC-A, a gate was applied to a lymphocyte group, thereby analyzing expression of PD-1 and Tim-3. Further, intracellular cytokines IFNγ, TNFα, and IL-2 were stained, and multifunctionality of CD8^+T cells contained in the PBMC was analyzed (FIG. 1).
This Example analyzed test results regarding recovery of multifunctionality of CD8^+T cells by metformin in 10 healthy subjects and five metastatic lung cancer patients (stage IV) by the same method as in Example 1. As in Table 3, in Table 3, in addition to the total CD8^+T cells (total CD8T), cytokine production abilities were confirmed in four kinds of CD8^+T cells, i.e., PD-1-positive, Tim-3-negative CD8^+T cells, PD-1-positive, Tim-3-positive CD8^+T cells, PD-1-negative, Tim-3-positive CD8^+T cells, and PD-1-negative, Tim-3-negative CD8^+T cells (Table 4). Cytokine production ability refers to cytokine production ratios of three kinds of cytokines (A), IFNγ/TNFα/IL-2, two kinds of cytokines (B), IFNγ/TNFα, two kinds of cytokines (C), FNγ/IL-2, and one kind of cytokine (D), IFNγ.

Compound: CN(C)C(=N)N=C(N)N [metformin]
- Decrease, IFNγ 1-cytokine-producing cell (PD-1+, Tim-3+, patients/total): 1/5
- Decrease, IFNγ/IL-2 2-cytokine-producing cell (PD-1+, Tim-3+, patients/total): 1/5
- Decrease, IFNγ/TNFα 2-cytokine-producing cell (PD-1+, Tim-3+, patients/total): 1/5
- Decrease, IFNγ/TNFα/IL2 3-cytokine-producing cell (PD-1+, Tim-3+, patients/total): 0/5
- Increase, IFNγ 1-cytokine-producing cell (PD-1+, Tim-3+, patients/total): 1/5
- Increase, IFNγ/IL-2 2-cytokine-producing cell (PD-1+, Tim-3+, patients/total): 1/5
- Increase, IFNγ/TNFα 2-cytokine-producing cell (PD-1+, Tim-3+, patients/total): 1/5
- Increase, IFNγ/TNFα/IL2 3-cytokine-producing cell (PD-1+, Tim-3+, patients/total): 0/5
- No Change, IFNγ 1-cytokine-producing cell (PD-1+, Tim-3+, patients/total): 3/5
- No Change, IFNγ/IL-2 2-cytokine-producing cell (PD-1+, Tim-3+, patients/total): 3/5
- No Change, IFNγ/TNFα 2-cytokine-producing cell (PD-1+, Tim-3+, patients/total): 3/5
- No Change, IFNγ/TNFα/IL2 3-cytokine-producing cell (PD-1+, Tim-3+, patients/total): 5/5
- Decrease, IFNγ 1-cytokine-producing cell (PD-1+, Tim-3−, patients/total): 1/5
- Decrease, IFNγ/IL-2 2-cytokine-producing cell (PD-1+, Tim-3−, patients/total): 1/5
- Decrease, IFNγ/TNFα 2-cytokine-producing cell (PD-1+, Tim-3−, patients/total): 2/5
- Decrease, IFNγ/TNFα/IL2 3-cytokine-producing cell (PD-1+, Tim-3−, patients/total): 0/5
- Increase, IFNγ 1-cytokine-producing cell (PD-1+, Tim-3−, patients/total): 0/5
- Increase, IFNγ/IL-2 2-cytokine-producing cell (PD-1+, Tim-3−, patients/total): 4/5
- Increase, IFNγ/TNFα 2-cytokine-producing cell (PD-1+, Tim-3−, patients/total): 1/5
- Increase, IFNγ/TNFα/IL2 3-cytokine-producing cell (PD-1+, Tim-3−, patients/total): 4/5
- No Change, IFNγ 1-cytokine-producing cell (PD-1+, Tim-3−, patients/total): 4/5
- No Change, IFNγ/IL-2 2-cytokine-producing cell (PD-1+, Tim-3−, patients/total): 0/5
- No Change, IFNγ/TNFα 2-cytokine-producing cell (PD-1+, Tim-3−, patients/total): 2/5
- No Change, IFNγ/TNFα/IL2 3-cytokine-producing cell (PD-1+, Tim-3−, patients/total): 1/5
- Decrease, IFNγ 1-cytokine-producing cell (PD-1−, Tim-3+, patients/total): 2/5
- Decrease, IFNγ/IL-2 2-cytokine-producing cell (PD-1−, Tim-3+, patients/total): 3/5
- Decrease, IFNγ/TNFα 2-cytokine-producing cell (PD-1−, Tim-3+, patients/total): 2/5
- Decrease, IFNγ/TNFα/IL2 3-cytokine-producing cell (PD-1−, Tim-3+, patients/total): 0/5
- Increase, IFNγ 1-cytokine-producing cell (PD-1−, Tim-3+, patients/total): 3/5
- Increase, IFNγ/IL-2 2-cytokine-producing cell (PD-1−, Tim-3+, patients/total): 0/5
- Increase, IFNγ/TNFα 2-cytokine-producing cell (PD-1−, Tim-3+, patients/total): 1/5
- Increase, IFNγ/TNFα/IL2 3-cytokine-producing cell (PD-1−, Tim-3+, patients/total): 0/5
- No Change, IFNγ 1-cytokine-producing cell (PD-1−, Tim-3+, patients/total): 0/5
- No Change, IFNγ/IL-2 2-cytokine-producing cell (PD-1−, Tim-3+, patients/total): 2/5
- No Change, IFNγ/TNFα 2-cytokine-producing cell (PD-1−, Tim-3+, patients/total): 2/5
- No Change, IFNγ/TNFα/IL2 3-cytokine-producing cell (PD-1−, Tim-3+, patients/total): 5/5
- Decrease, IFNγ 1-cytokine-producing cell (PD-1−, Tim-3−, patients/total): 2/5
- Decrease, IFNγ/IL-2 2-cytokine-producing cell (PD-1−, Tim-3−, patients/total): 2/5
- Decrease, IFNγ/TNFα 2-cytokine-producing cell (PD-1−, Tim-3−, patients/total): 2/5
- Decrease, IFNγ/TNFα/IL2 3-cytokine-producing cell (PD-1−, Tim-3−, patients/total): 0/5
- Increase, IFNγ 1-cytokine-producing cell (PD-1−, Tim-3−, patients/total): 1/5
- Increase, IFNγ/IL-2 2-cytokine-producing cell (PD-1−, Tim-3−, patients/total): 1/5
- Increase, IFNγ/TNFα 2-cytokine-producing cell (PD-1−, Tim-3−, patients/total): 1/5
- Increase, IFNγ/TNFα/IL2 3-cytokine-producing cell (PD-1−, Tim-3−, patients/total): 2/5
- No Change, IFNγ 1-cytokine-producing cell (PD-1−, Tim-3−, patients/total): 2/5
- No Change, IFNγ/IL-2 2-cytokine-producing cell (PD-1−, Tim-3−, patients/total): 2/5
- No Change, IFNγ/TNFα/IL2 3-cytokine-producing cell (PD-1−, Tim-3−, patients/total): 3/5
- Decrease, IFNγ 1-cytokine-producing cell (Total CD8T, patients/total): 3/5
- Decrease, IFNγ/IL-2 2-cytokine-producing cell (Total CD8T, patients/total): 0/5
- Decrease, IFNγ/TNFα 2-cytokine-producing cell (Total CD8T, patients/total): 4/5
- Decrease, IFNγ/TNFα/IL2 3-cytokine-producing cell (Total CD8T, patients/total): 0/5
- Increase, IFNγ 1-cytokine-producing cell (Total CD8T, patients/total): 0/5
- Increase, IFNγ/IL-2 2-cytokine-producing cell (Total CD8T, patients/total): 1/5
- Increase, IFNγ/TNFα 2-cytokine-producing cell (Total CD8T, patients/total): 1/5
- Increase, IFNγ/TNFα/IL2 3-cytokine-producing cell (Total CD8T, patients/total): 1/5
- No Change, IFNγ 1-cytokine-producing cell (Total CD8T, patients/total): 2/5
- No Change, IFNγ/IL-2 2-cytokine-producing cell (Total CD8T, patients/total): 4/5
- No Change, IFNγ/TNFα 2-cytokine-producing cell (Total CD8T, patients/total): 0/5
- No Change, IFNγ/TNFα/IL2 3-cytokine-producing cell (Total CD8T, patients/total): 4/5
- Increase + No Change, IFNγ/TNFα/IL2, share of patients (Total CD8T, Patients (stage IV)): 100%
- Increase + No Change, IFNγ/TNFα/IL2 (Total CD8T, Patients (stage IV), patients/total): 5/5
- decrease in multifunctionality by the metformin treatment (three kinds of cytokines) (cancer patients (stage IV)): very small (zero)
